These results are taken from ChEMBL document CHEMBL4177682, “Indirubin derivatives protect against endoplasmic reticulum stress-induced cytotoxicity and down-regulate CHOP levels in HT22 cells” (Bioorg Med Chem Lett, 2017).

Each structure is given as a SMILES string. Active and inactive are the calls of the source. The calls are words filed in the database; no cut-off is given here.

As usually defined, the EC50 is the concentration needed to bring the measured effect to its halfway point.

In data set [1] the test system is HT-22. In words: Cytoprotective activity against tunicamycin-induced cell death in mouse HT22 cells at 20 uM after 24 hrs by MTT assay. The data set is classed as functional, cell-based. (Formazan colour is commonly taken as a measure of viable cells.)
Data set [2] concerns HT-22. In words: Cytoprotective activity against tunicamycin-induced cell death in mouse HT22 cells after 24 hrs by MTT assay. The format is functional, cell-based. The following applies: for EC50: HT-22, 24 h.
Data set [3] concerns HT-22. Kind of data set: Cytotoxicity against mouse HT22 cells at 20 uM after 24 hrs by MTT assay. The data set is classed as cell-based. The following applies: ht-22, 24 h.
Data set [4] has as its system HT-22. Kind of data set: Cytoprotective activity against tunicamycin-induced cell death in mouse HT22 cells assessed as preservation of spindle shape morphology after 24 hrs by MTT assay. The data set is classed as functional, cell-based.
Data set [5] deals with HT-22. In words: Effect on CHOP expression in mouse HT22 cells at 20 uM after 12 hrs by Western blot analysis. The format is cell-based. The following applies: ht-22, 12 h. On the technique in general: In western blotting, separated proteins are transferred to a membrane and probed.
Data set [6] relates to HT-22. In words: Suppression of TM-induced increase in CHOP expression in mouse HT22 cells at 20 uM after 12 hrs by Western blot analysis. The data set is classed as functional, cell-based.

On to `CN1C(=O)/C(=C2\Nc3ccccc3C2=O)c2ccc(Br)cc21`, for which the outcome in the data set on HT-22 [1] was inactive.

Turning to `COc1ccc2c(c1)/C(=C1/Nc3ccc(OC)cc3/C1=N\O)C(=O)N2`, the Activity result in the data set with HT-22 [2] is “Dose-dependent effect”.

In the case of `COc1ccc2c(c1)NC(=O)/C2=C1\Nc2ccccc2\C1=N/O`, in the data set with HT-22 [1], the outcome was Active. In the data set with HT-22 [2], the Activity entry was “Dose-dependent effect”.

As for `O=C1Nc2ccccc2/C1=C1/Nc2ccccc2C1=O` [INDIRUBIN], the Activity result with HT-22 [3] was “Toxic”; in the data set on HT-22 [2], “Dose-dependent effect”.

Consider `CCc1ccc2c(c1)/C(=C1/Nc3ccccc3C1=O)C(=O)N2`, for which, in the data set on HT-22 [2], the Activity entry was “Dose-dependent effect”.

`COc1cc2c(cc1OC)/C(=C1/Nc3ccccc3/C1=N\O)C(=O)N2`: the result in the data set with HT-22 [1] was Active. Also, the Activity result in the data set with HT-22 [2] was “Dose-dependent effect”.

In the case of `CN1C(=O)/C(=C2\Nc3ccccc3\C2=N/O)c2ccc(Br)cc21`, the result with HT-22 [1] was Active. Moreover, in the data set with HT-22 [2], the Activity entry was “Dose-dependent effect”.

On to `COc1ccc2c(c1)C(=O)/C(=C1/C(=O)Nc3ccc(OC)cc31)N2`, for which the results for the Activity entry with HT-22 [3], in the data set on HT-22 [2] and with HT-22 [5] were “Non-Toxic”, “Dose-dependent effect” and “Non-Toxic”, respectively. Further, the outcome in the data set with HT-22 [1], in the data set on HT-22 [4] and in the data set on HT-22 [6] was Active. Moreover, in the data set with HT-22 [2], the EC50 came out at 30 µM.

Take `O=C1Nc2ccc(O)cc2/C1=C1/Nc2ccccc2C1=O`: the Activity result in the data set with HT-22 [2] is “Dose-dependent effect”.

As to `O=C1Nc2ccccc2/C1=C1/Nc2ccc(Br)cc2C1=O`, in the data set with HT-22 [2], the Activity result was “Dose-dependent effect”.

For `O=C1Nc2ccccc2/C1=C1/Nc2ccccc2/C1=N\O`, the Activity entry in the data set on HT-22 [3] was “Toxic”; in the data set on HT-22 [2] it was “Dose-dependent effect”. In the data set with HT-22 [1], the outcome was Active.

In the case of `CC(C)c1ccc2c(c1)/C(=C1/Nc3ccccc3/C1=N\O)C(=O)N2`, the result with HT-22 [1] was Active. Also, the Activity entry with HT-22 [2] was “Dose-dependent effect”.

Regarding `COc1ccc2c(c1)/C(=C1/Nc3ccccc3/C1=N\O)C(=O)N2`, the outcome with HT-22 [1] was Active. Besides, the Activity entry with HT-22 [2] is “Dose-dependent effect”.

On to `CCc1ccc2c(c1)/C(=C1/Nc3ccccc3/C1=N\O)C(=O)N2`, for which, in the data set with HT-22 [1], the outcome was Active. Besides, the Activity result in the data set on HT-22 [2] was “Dose-dependent effect”.

For `Cc1ccc2c(c1)/C(=C1/Nc3ccccc3C1=O)C(=O)N2`, the Activity result with HT-22 [3] was “Non-Toxic”; with HT-22 [2] it was “Dose-dependent effect”; with HT-22 [5], “Non-Toxic”. Moreover, the outcome in the data set with HT-22 [1], in the data set with HT-22 [4] and in the data set on HT-22 [6] was Active. In the data set on HT-22 [2], this molecule yielded an EC50 of 30.8 µM.

In the case of `O=C1Nc2ccccc2/C1=C1/Nc2cc(Br)ccc2/C1=N\O`, the outcome in the data set with HT-22 [1] was Active. In addition, the Activity entry in the data set with HT-22 [2] is “Dose-dependent effect”.

Regarding `CCc1ccc2c(c1)C(=O)/C(=C1/C(=O)Nc3ccccc31)N2`, the Activity result is “Non-Toxic” in the data set with HT-22 [3], “Dose-dependent effect” in the data set with HT-22 [2] and “Non-Toxic” in the data set with HT-22 [5]. The result in the data set on HT-22 [1], in the data set with HT-22 [4] and with HT-22 [6] was Active. In the data set with HT-22 [2], the response was half-maximal at 24.5 µM (EC50).

`COc1ccc2c(c1)/C(=C1/Nc3ccccc3C1=O)C(=O)N2`: the Activity entry in the data set with HT-22 [2] was “Dose-dependent effect”.

With `COc1ccc2c(c1)C(=O)/C(=C1/C(=O)Nc3ccccc31)N2`, the Activity entry with HT-22 [2] is “Dose-dependent effect”.

In the case of `CC(=O)N1C(=O)/C(=C2\Nc3ccccc3C2=O)c2ccccc21`, the Activity entry with HT-22 [3] was “Non-Toxic”; in the data set with HT-22 [2], “Dose-dependent effect”; in the data set with HT-22 [5], “Non-Toxic”. In addition, the outcome in the data set on HT-22 [1], in the data set with HT-22 [4] and in the data set with HT-22 [6] was Active. This molecule returned an EC50 in the data set with HT-22 [2] of 9.8 µM.

As for `CC(C)(C)c1ccc2c(c1)/C(=C1/Nc3ccccc3C1=O)C(=O)N2`, in the data set with HT-22 [2], the Activity entry is “Dose-dependent effect”.

With `O=C1Nc2ccc(Br)cc2/C1=C1/Nc2ccc(Br)cc2/C1=N\O`, the results for the Activity entry in the data set on HT-22 [3] and with HT-22 [2] were “Toxic” and “Dose-dependent effect”, respectively. Further, the result in the data set with HT-22 [1] was Active.

On to `O=C1Nc2c(O)cccc2/C1=C1/Nc2ccccc2C1=O`, for which the Activity entry in the data set on HT-22 [2] is “Dose-dependent effect”.

For the molecule `COc1cccc2c1NC(=O)/C2=C1\Nc2ccccc2\C1=N/O`, the outcome in the data set with HT-22 [1] was Active. In addition, the Activity result with HT-22 [2] was “Dose-dependent effect”.

Take `COc1ccc2c(c1)NC(=O)/C2=C1\Nc2ccccc2C1=O`: the Activity result in the data set with HT-22 [2] is “Dose-dependent effect”.

On to `O=C1Nc2ccccc2/C1=C1/Nc2cc(Br)ccc2C1=O`, for which, in the data set on HT-22 [2], the Activity result was “Dose-dependent effect”.

Consider `COc1cccc2c1NC(=O)/C2=C1\Nc2ccccc2C1=O`, for which, in the data set on HT-22 [2], the Activity entry was “Dose-dependent effect”.

Consider `Cc1ccc2c(c1)/C(=C1/Nc3ccccc3/C1=N\O)C(=O)N2`, for which, in the data set with HT-22 [1], the outcome was Active. The Activity result in the data set with HT-22 [2] is “Dose-dependent effect”.

Consider `Cc1ccc2c(c1)C(=O)/C(=C1/C(=O)Nc3ccccc31)N2`, for which, in the data set on HT-22 [2], the Activity result was “Dose-dependent effect”.

On to `CC(C)(C)c1ccc2c(c1)/C(=C1/Nc3ccccc3/C1=N\O)C(=O)N2`, for which the result with HT-22 [1] was Active. Besides, the Activity entry with HT-22 [2] is “Dose-dependent effect”.

`O=C1Nc2ccccc2/C1=C1/Nc2ccc(Br)cc2/C1=N\O`: the outcome in the data set on HT-22 [1] was Active. The Activity entry in the data set with HT-22 [2] was “Dose-dependent effect”.

As for `O=C1Nc2cc(Br)ccc2/C1=C1/Nc2ccccc2/C1=N\O` [6BIO], the Activity entry in the data set with HT-22 [3] is “Toxic”. In addition, the result in the data set on HT-22 [1] was inactive.

With `O=C1Nc2ccc(Br)cc2/C1=C1/Nc2ccc(Br)cc2C1=O`, the Activity entry with HT-22 [3] was “Non-Toxic”; with HT-22 [2] it was “Dose-dependent effect”; in the data set on HT-22 [5] it was “Non-Toxic”. In addition, the outcome in the data set on HT-22 [1], in the data set with HT-22 [4] and in the data set with HT-22 [6] was Active. The EC50 with HT-22 [2] was found to be 21.3 µM.

Consider `O=C1Nc2cc(O)ccc2/C1=C1/Nc2ccccc2C1=O`, for which the Activity result in the data set with HT-22 [3] is “Non-Toxic”; in the data set on HT-22 [2], “Dose-dependent effect”; with HT-22 [5] it was “Non-Toxic”. Besides, the result with HT-22 [1], in the data set with HT-22 [4] and with HT-22 [6] was Active. The molecule further yielded an EC50 in the data set on HT-22 [2] of 23.7 µM.

As to `O=C1Nc2ccc(Br)cc2/C1=C1/Nc2ccccc2C1=O`, the Activity result in the data set on HT-22 [3] was “Non-Toxic”; with HT-22 [2], “Dose-dependent effect”; in the data set with HT-22 [5] it was “Non-Toxic”. Also, the result with HT-22 [1], in the data set on HT-22 [4] and with HT-22 [6] was Active. Moreover, the EC50 in the data set with HT-22 [2] amounted to 36 µM.

Regarding `COc1ccc2c(c1)N/C(=C1\C(=O)Nc3ccccc31)C2=O`, in the data set on HT-22 [2], the Activity entry was “Dose-dependent effect”.

`COc1ccc2c(c1)C(=N\O)/C(=C1/C(=O)Nc3ccccc31)N2`: in the data set on HT-22 [1], the outcome was Active. For the same molecule, the Activity entry with HT-22 [2] is “Dose-dependent effect”.

With `O=C1Nc2ccccc2/C1=C1/Nc2ccccc2/C1=N\OCC1CO1` (stereo not given), the Activity result with HT-22 [2] is “Dose-dependent effect”.

For `O=C1Nc2c(Br)cccc2/C1=C1/Nc2ccccc2C1=O`, the result in the data set on HT-22 [1] was inactive.

On to `COc1cc2c(cc1OC)/C(=C1/Nc3ccccc3C1=O)C(=O)N2`, for which, in the data set with HT-22 [2], the Activity result is “Dose-dependent effect”.

For `O=C1Nc2cc(Br)ccc2/C1=C1/Nc2ccccc2C1=O`, the result in the data set with HT-22 [1] was inactive.

As to `O=C1Nc2ccc(Br)cc2/C1=C1/Nc2ccccc2/C1=N\O` [INDIRUBIN 2], the Activity result in the data set on HT-22 [3] was “Non-Toxic”; in the data set with HT-22 [2] it was “Dose-dependent effect”; in the data set on HT-22 [5], “Non-Toxic”. The result in the data set with HT-22 [1], in the data set on HT-22 [4] and with HT-22 [6] was Active. This molecule showed a half-maximal effective concentration (EC50) in the data set with HT-22 [2] of 85.8 µM.

On to `CC(C)c1ccc2c(c1)/C(=C1/Nc3ccccc3C1=O)C(=O)N2`, for which the Activity entry in the data set on HT-22 [2] was “Dose-dependent effect”.

Turning to `O=C(O)Cc1ccc2c(c1)/C(=C1/Nc3ccccc3C1=O)C(=O)N2`, the Activity entry in the data set with HT-22 [2] was “Dose-dependent effect”.
